Data reported in publication PMC7356390, “Dehydrozingerone, a Curcumin Analog, as a Potential Anti-Prostate Cancer Inhibitor In Vitro and In Vivo” (Molecules, 2020).
Where two headings read alike, the source gives them in different places.

Legend:
PLS10 cells xenograft = assay: In vivo antitumor activity, PLS10 cells xenograft model; parameters: species or system male BALB/c-nu/nu mice; settings: for Body Weights at the end of the experiment / Organ Weights, Kidneys / Organ Weights, Livers: mean ± S.E.; for Ki67-labeling index in tumor sections: control 63; for tumor volume: control 96 cm^3; for CD31-positive areas in tumors (angiogenesis): vs control, p < 0.05; for survival percentage of nude mice: male, BALB/c-nu/nu, mouse, in vivo, 5 weeks
Description: Figure 4 DZG inhibited cell proliferation and angiogenesis in vivo using PLS10 cells xenograft model. Mice were subcutaneously injected with PLS10 cells and treated two times per week with Cur or DZG (30 mg/kg body weight) for a period of 5 weeks. Tumor volume was measured twice a week and at the end of the study (a). The tumor masses were collected, sectioned and analyzed by immunohistochemistry to detect the Ki67-labeling index (b), % TUNEL (Terminal deoxynucleotidyl transferase dUTP nick end labeling)-positive cells (c) and % of the vessel area (d). Data presented in bar diagrams represent the mean ± S.E of eight mice in the control and nine mice in the treatment groups. ** p < 0.01 vs. control (one-way ANOVA, Dunnett’s multiple comparisons test, tested groups vs. control group).
The in vivo antitumor activity of DZG or Cur was examined using five-week-old male BALB/c-nu/nu mice. Mice were randomly divided into 3 groups, with up to 8 or 9 mice per group. The PLS10 cells (5.0 × 10^5) were subcutaneously injected into each mouse. The treatments were initiated 2 days after PLS10 cells injections, at which point, mice received 50% DMSO in normal saline solution (NSS) (vehicle control) at 30 mg/kg body weight of Cur or DZG via i.p. injection two times a week for five weeks. The body weight of each mouse was measured twice a week during the experiment. At week 5 of the experiment, mice were euthanized, and primary tumors and organs, such as lungs, liver, kidneys and lymph nodes, were removed and fixed in 10% buffered formalin. The tumor volume of each mouse was measured and calculated according to the following formulation: 0.52 × (axis1 × axis2 × axis3). A section of the primary tumor, lung, liver, and kidney specimens were collected and fixed in 10% buffered formalin. Tissue sections of the primary tumors and organs were stained with H&E.
The paraffin-embedded samples were sectioned and stained with rabbit monoclonal anti-Ki67 (SP6; Acris Antibodies GmbH, Herford, Germany) and rabbit polyclonal anti-CD31 antibodies (Abcam, Cambridge, UK) and sequentially stained with an anti-rabbit secondary antibody and avidin-biotin complex. The binding complexes were then visualized with diamino-benzidine. Subsequently, the sections were then counterstained lightly with hematoxylin for microscopic examination. The number of Ki67-staining cells for a minimum of 1000 cells was counted to determine the labeling index. For quantitative analysis of the vessel area, CD31-positive areas per the total area section were determined under microscopy (BZ-9000).
The paraffin-embedded samples were sectioned, and the degree of apoptosis in the tumor tissue was determined using a TUNEL assay (In situ Apoptosis Detection Kit; Takara Bio Inc., Ohtsu, Japan). The TUNEL assay was performed according to the manufacturer’s instructions. The number of TUNEL-labeled cells in a minimum of 1000 cells was counted in order to establish the labeling index.

PLS10 cells [1] = system: PLS10 cells; parameters: method as in PMID 30499149; settings: read-out: IC50 of Cur on PLS10 cells (previous study); cited from earlier work
[2] = In vivo pharmacokinetics and tissue distribution (HPLC); parameters: species or system male BALB/c mice; settings: for concentration at 30 min: 30 min after 100 mg/kg i.p.; for concentration at 60 min: 60 min after 100 mg/kg i.p.; for Tmax: serum, ip, read-out: time to maximum serum concentration after i.p. administration
Description: Figure 5 Levels of serum Cur and DZG recorded in mice after receiving a single dose of Cur or DZG (100 mg/kg body weight) by intraperitoneal (i.p.) injection. Serum concentrations of Cur and DZG were determined by high-performance liquid chromatography (HPLC) using a reversed-phase C18 column (Waters). The mobile phase values were 52% acetonitrile and 48% citric buffer. Each point represents the mean ± S.E. of three or four mice.
A comparison of the pharmacokinetics between Cur and DZG was determined using seven-week-old male BALB/c mice. The designated 32 mice were randomly divided into 3 groups, identified as the control, Cur and DZG groups. Mice were i.p. injected with 50% DMSO in NSS (vehicle control), Cur or DZG at concentrations of 100 mg/kg of body weight for each mouse. The mice were euthanized, and blood from each mouse was collected at 0, 30, 60 and 180 min after injection. Lungs, liver and kidneys were removed and frozen for detection of the levels of concentrations of Cur and DZG.
The concentrations of Cur or DZG in the serum or organ tissues were determined using the HPLC method. The tissues were homogenized in 200 μl of 50% acetonitrile and vortexed for 5 min. Samples were centrifuged at 96.5 g at 4°C for 20 min. Fifty microliters of serum or tissue homogenate was mixed with 1.5-mg/mL trichloroacetic acid in 100 µl of acetonitrile. The substance was then centrifuged at 96.5 g at 4°C for 20 min. Sixty microliters of the supernatant was collected and subjected to HPLC using a reversed-phase C18 column (Waters Corporation, Milford, MA, USA). The mobile phase was composed of 52% acetonitrile and 48% citric buffer (1% w/v citric acid, pH 3.0), and the flow rate was set at 1 mL/min. The detection wavelength for Cur and DZG were 425 and 340 nm, respectively. Concentrations of Cur and DZG in the serum were calculated and compared to the standard curve (0–3200 ng/mL). The limits of quantification for Cur and DZG were 100 and 50 ng/mL, respectively. The extraction recovery from the plasma was approximately 90% for both Cur and DZG.

PLS10 cells [3] = assay: WST-1 cell viability assay; format: cell-based; settings: Rattus norvegicus; 48 h, WST-1 assay, mean ± S.D.; read-out: IC50, cell proliferation of PLS10 cells
Description: Figure 2 Cytotoxicity of Cur (a) and DZG (b) on PLS10 cells. Cells were treated with Cur (0–50 μM) or DZG (0–200 µM) and incubated for 48 h. Cell viability was measured by WST-1 assay. Data are represented as mean ± S.D. of three independent experiments. * p < 0.05, ** p < 0.01 and *** p < 0.001 vs. control (one-way ANOVA, Dunnett’s multiple comparisons test, tested groups vs. control group). PLS10 cells (2.0 × 10^3 cells per well) were plated in a 96-well plate for 24 h. Cur and DZG were dissolved in DMSO and diluted to the final concentration in the culture medium. After that, the culture medium containing Cur (0–50 µM) or DZG (0–200 µM) in 0.5% DMSO (vehicle control) were added into the cells. The cells were incubated in 5% CO2 at 37°C for a further 48 h, and cell viability was determined using the WST-1 colorimetric assay (Roche Diagnostics, Mannheim, Germany). In each experiment, determinations were carried out in triplicate.

[4] = 30 mg/kg i.p. two times a week for five weeks
[5] = male, BALB/c, mouse, kidney, intraperitoneal, 100 mg/kg body weight, mean ± S.E., read-out: tissue concentration, Kidneys
[6] = male, BALB/c, mouse, liver, intraperitoneal, 100 mg/kg body weight, mean ± S.E., read-out: tissue concentration, Liver
[7] = male, BALB/c, mouse, lung, intraperitoneal, 100 mg/kg body weight, mean ± S.E., read-out: tissue concentration, Lung
[8] = male, BALB/c, mouse, single dose 100 mg/kg i.p., mice
[9] = single dose 100 mg/kg i.p., mice

Row | SMILES | Body Weights at the end of the experiment (PLS10 cells xenograft; [4]) | Organ Weights, Kidneys (PLS10 cells xenograft; [4]) | Organ Weights, Livers (PLS10 cells xenograft; [4]) | Ki67-labeling index in tumor sections (PLS10 cells xenograft; [4]) [%] | tumor volume (PLS10 cells xenograft; [4]) [cm^3] | CD31-positive areas in tumors (angiogenesis) (PLS10 cells xenograft; [4]) | survival percentage of nude mice (PLS10 cells xenograft) [%] | concentration at 30 min [2, 5] [ng/g] | concentration at 60 min [2, 5] [ng/g] | concentration at 30 min [2, 6] [ng/g] | concentration at 30 min [2, 7] [ng/g] | Tmax [2, 8] [min] | maximum serum concentration [2, 9] [µg/mL] | time at detectable concentrations in the serum after i.p. injection [2, 9] | IC50 (PLS10 cells [3]) [µM] | other results
1 | COc1cc(/C=C/C(=O)CC(=O)/C=C/c2ccc(O)c(OC)c2)ccc1O [Cur, Curcumin] | 26.71 ± 1.26 | 0.40 ± 0.03 | 1.67 ± 0.10 | 62 | 38 | significantly reduced | 100 | 1010 ± 550 | 530 ± 190 | 2600 ± 780 | 1150 ± 1300 | ≤ 30 | 2.28 ± 2.42 | ≤ 1 h | 20.3 ± 0.58 | IC50 (PLS10 cells [1]): 26.5 ± 1.8 µM
2 | COc1cc(/C=C/C(C)=O)ccc1O [DZG, (E)-4-(4-hydroxy-3-methoxyphenyl)-but-3-en-2-one] | 27.12 ± 1.00 | 0.39 ± 0.03 | 1.60 ± 0.09 | 59 | 24 | significantly reduced | 100 | 5920 ± 3800 | 9750 ± 4080 | 920 ± 670 | 1410 ± 740 | ≤ 30 | 4.87 ± 2.74 | up to 3 h | 153 ± 11.8 | apoptotic cells (TUNEL-positive) in tumor sections (PLS10 cells xenograft; 30 mg/kg i.p. two times a week for five weeks, control 7%): 10%; concentration at 180 min ([2]; male, BALB/c, mouse, kidney, intraperitoneal, 100 mg/kg body weight, 180 min after 100 mg/kg i.p., mean ± S.E., read-out: tissue concentration, Kidneys): 860 ± 220 ng/g; concentration at 60 min [2, 6]: 410 ± 110 ng/g; concentration at 60 min [2, 7]: 720 ± 280 ng/g; time of highest concentration in the kidneys after injection [2, 9]: 1 h
